# Reference: patent publication US8951566B2, “Process for preparing products comprising stabilised actives and compositions comprising same” (priority 2011, dated 2015)
# Assay: Blood glucose of a diabetic patient switched from Metformin to sublingual Exenatide tablet
# Format: in vivo, human
# Conditions: one diabetic patient; Exenatide 20 μg sublingual tablet once a day; FIGS. 1 and 2
# Procedure: A diabetic patient who was undergoing treatment with Metformin switched to once a day treatment with a slow release 20 μg Exenatide sublingual tablet prepared in accordance with Example 2. The fasting glucose and plasma glucose levels were measured and are depicted in FIGS. 1 and 2.
compound,measurement,value
CN(C)C(=N)N=C(N)N [Metformin],blood glucose level / profile (fasting and 2 hours after a meal),erratic and difficult to control
